The results in this text go back to patent US10695364B2, “Anti-hemorrhaging compositions” (Ariel-University Research and Development Company Ltd., priority 2015, dated 2020).

SMILES strings stand for the structures. “Also recorded” adds a separate entry of the source. Structures can show the parent of a compound that is named as a salt.

For the assay, the system named is blood drawn from mice. Description: Blood coagulation assay (presence or absence of blood clots, observed with CCD camera). The protocol: Rats or mice (2-3 months old) were sacrificed using CO2 and their blood was extracted directly from the heart using 1 ml syringe and a 23-gauge needle. Blood was transferred to two groups of experimental tubes (400 microliters in each): empty tubes, and tubes containing citrate at a final concentration of 0.35% by weight (e.g., 50 μl of a respective 3.2% stock solution of trisodium citrate in water).
The anti-coagulant activity of the citrate powder was confirmed by recording absence of clot formation during the entire experiment, and thereafter, each of the following components was added to the tubes in both groups, at varying amounts:
=Coral skeleton particulates prepared from Porites lutea (to achieve a final concentration of 50-200 mg/ml)
=Coral skeleton particulates prepared from Stylophora subseriata (to achieve a final concentration of 50-200 mg/ml)
=Geological aragonite (to achieve a final concentration of 50-200 mg/ml)
=amorphous calcium carbonate (ACC) (1-200 mg, to achieve a final concentration of 2-50 mg/ml)
=Glass beads (0.1 mm diameter; to achieve a final concentration of 100 mg/ml)
Coagulation and anti-coagulation activity (presence and absence, respectively, of blood clots) was observed using a CCD camera.

For the compound `O=C([O-])[O-].[K+].[K+]` [potassium carbonate], the “coagulation time of citrate-containing blood” value (final concentration 50 mg/ml, citrate-containing blood, data not shown) was in the range of 40 to 45 min.
As to `O=C(O)CC(O)(CC(=O)O)C(=O)O` [citrate, Trisodium citrate], for the setting “blood drawn from mice, 0.35% by weight of citrate, no calcium carbonate”, the “effect of citrate by itself on clotting” value is “blocked clotting; also recorded: anti-coagulation effect”.
